This experiment concerns 565726-208-R1-J5-PDC complex spheroids, growth inhibition. Nature of the experiment: Anticancer human tumor 565726-208-R1-J5-PDC patient-derived pancreatic adenocarcinoma cell line growth inhibition [RAS]. The following applies: for viability, T/C: stronger effect = lower value. The text has this: RAS pathway inhibitors in Combinations in Complex Spheroids
A high-throughput screen of multi-cell type tumor spheroids was designed to identify active combinations of RAS pathway inhibitors and targeted small molecules. Complex spheroids include a stromal component modeled by human endothelial cells (HUVEC) and fibroblasts modeled by human mesenchymal stem cells (MSCs). The concentration ranges selected for each drug and investigational agent were based upon clinically achievable concentrations if the clinical Cmax of the agent was known.
Compounds. The drugs and investigational agents: abemaciclib (NSC768073), cobimetinib (NSC768068), divarasib (GDC6063, NSC841802), docetaxel (NSC628503), GDC-1971 (RLY-1971, NSC841576), gemcitabine (NSC613327), inavolisib (NSC800729), ipatasertib (NSC767898), KB-0742 (NSC834161), MRTX-1133 (NSC836407), osimertinib (NSC779217), RMC-4630 (NSC839698), RMC-6236 (NSC851965), RMC-6291 (NSC852671), Ro-3306 (NSC812927), sapanisertib (NSC764658), SN-38 (NSC673596), staurosporine (NSC755774), SY5609 (NSC837396), and tovorafenib (DAY101, NSC766906), were obtained from the National Cancer Institute (NCI) Developmental Therapeutics Program Chemical Repository. The FDA-approved anticancer drug set is available from the NCI Developmental Therapeutics Program. […] The stock solutions were prepared in dimethyl sulfoxide (DMSO, Sigma-Aldrich, St. Louis, MO, cat. D2650) at 800-fold the tested concentration and stored at -70 degrees C prior to their use. All drugs and investigational agents were tested over a range starting from a high concentration at or near the clinical Cmax and decreasing in half-log increments. If the clinical Cmax for an agent had not been determined, the highest concentration tested was 10 microM.
Cell Culture. All cells were maintained in an incubator at 37 degrees C and 5% CO2 with 95% humidity. The PDC lines were cultured according to standard operating procedures established by the NCI PDMR. All PDCs were thawed and cultured in Matrigel-coated flasks prepared with a working solution of 1X Ham's F-12 nutrient mix, without supplementation (Invitrogen, Waltham, MA, cat. 11765054), 100 U/mL penicillin-streptomycin (Invitrogen, cat. 15140122), and 2.5% Matrigel (Corning Inc., Corning, NY, cat. 354248) for the first three passages. The 362531-283-R-J2-PDC and 782815-120-R-J1-PDC lines were cultured in 6C/Colon 1B media, which includes advanced DMEM/F-12 (Thermo Fisher Scientific, cat. 12634028), 10 mM HEPES (Thermo Fisher Scientific, cat. 15630080), 1X GlutaMAX supplement (Thermo Fisher Scientific, cat. 35050061), 0.1 mg/mL primocin (InvivoGen, San Diego, CA, cat. ant-pm-2), 10% defined fetal bovine serum, heat inactivated (HyClone Laboratories Inc., Logan, UT, cat. SH30070.03HI), 50% L-WRN conditioned media (ATCC, cat. CRL-3276), 1.25 mM N-Acetyl-L-cysteine (Sigma-Aldrich, cat. A9165), 10 mM nicotinamide (Sigma-Aldrich, cat. N0636), 1X B-27 supplement (Thermo Fisher Scientific, cat. 17504044), 1X N-2 supplement (Thermo Fisher Scientific, cat. 17502048), 50 ng/mL human EGF (Thermo Fisher Scientific, cat. PHG0311), and 10 microM Y-27632 dihydrochloride (Tocris Bioscience, cat. 1254). The K12877-001-R-J1-PDC line was cultured in 6I media, which includes all 6C/Colon 1B media plus 10 ng/mL human FGF-10 (PeproTech, cat. 100-26), 1 ng/mL human FGF-2 (PeproTech, cat. 100-18B), 1 µM prostaglandin E2 (Tocris Bioscience, cat. 2296), […] hydrocortisone (Sigma-Aldrich, cat. H4001), and […] bovine insulin (Sigma-Aldrich, cat. I6634). The K86415-001-R-J1-PDC line was cultured in 6D media, which includes all 6C/Colon 1B media components minus the L-WRN conditioned media. The 485176-168-R4-J1-PDC was cultured in PANC media, which includes all 6C/Colon 1B media plus 100 ng/mL human FGF-10 (PeproTech, cat. 100-26), 500 nM SB-431542 (Selleckchem, cat. S1067), and 10 nM gastrin (Tocris Bioscience, cat. 3006). […]

“And” between values parts separate entries of the source, which are not always exact repeats. Equal values may be shown once. Bounds are passed on as bounds.
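Also: spheroids exposed to compounds for seven days before readout.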

In general, IC50 refers to the concentration that inhibits the measured activity by half. As usually defined, the viability, T/C is the result in the treated group divided by that in the control group, in per cent. On to `CC(C)NCC(C(=O)N1CCN(c2ncnc3c2C(C)CC3O)CC1)c1ccc(Cl)cc1` (stereo not given) + CCn1c(-c2cc(N3CCN(C)CC3)cnc2C(C)OC)c2c3cc(ccc31)-c1csc(n1)CC(NC(=O)C1CC1C)C(=O)N1CCCC(N1)C(=O)OCC(C)(C)C2, for which the IC50 is, setting by setting: (curve of first compound, second compound 0.000949 µM) 1520 nM; (curve of first compound, second compound 0.003 µM) 347 nM; (curve of first compound, second compound 0.00949 µM) less than 31.6 nM; (curve of first compound, second compound 0.03 µM) less than 31.6 nM; (curve of first compound, second compound 0.0949 µM) less than 31.6 nM; (curve of first compound, second compound 0.3 µM) less than 31.6 nM. For the same molecule, the viability, T/C (second compound 0.000949 µM, first compound 0.0316 µM) is 66.7%; the viability, T/C (second compound 0.000949 µM, first compound 0.1 µM) was 64.6%; the viability, T/C (second compound 0.000949 µM, first compound 0.316 µM) is 62.8%; the viability, T/C (second compound 0.000949 µM, first compound 1 µM) is 51.7%; the viability, T/C (second compound 0.000949 µM, first compound 3.16 µM) was 43.9%; the viability, T/C (second compound 0.000949 µM, first compound 10 µM) is 28.7%. Also, the viability, T/C (second compound 0.003 µM, first compound 0.0316 µM) was 59.2%; the viability, T/C (second compound 0.003 µM, first compound 0.1 µM) was 58.8%; the viability, T/C (second compound 0.003 µM, first compound 0.316 µM) was 48.7%; the viability, T/C (second compound 0.003 µM, first compound 1 µM) is 41.2%; the viability, T/C (second compound 0.003 µM, first compound 3.16 µM) is 38.3%; the viability, T/C (second compound 0.003 µM, first compound 10 µM) was 21.4%. Also, the viability, T/C by setting is: (second compound 0.00949 µM, first compound 0.0316 µM) 42.5%; (second compound 0.00949 µM, first compound 0.1 µM) 41.8%; (second compound 0.00949 µM, first compound 0.316 µM) 38.5%; (second compound 0.00949 µM, first compound 1 µM) 34.5%; (second compound 0.00949 µM, first compound 3.16 µM) 33.1%; (second compound 0.00949 µM, first compound 10 µM) 18.3%. Moreover, the viability, T/C reads like this: (second compound 0.03 µM, first compound 0.0316 µM) 32%; (second compound 0.03 µM, first compound 0.1 µM) 34.1%; (second compound 0.03 µM, first compound 0.316 µM) 30.6%; (second compound 0.03 µM, first compound 1 µM) 28.5%; (second compound 0.03 µM, first compound 3.16 µM) 24.7%; (second compound 0.03 µM, first compound 10 µM) 14.7%. Further, the viability, T/C by setting is: (second compound 0.0949 µM, first compound 0.0316 µM) 27%; (second compound 0.0949 µM, first compound 0.1 µM) 25.5%; (second compound 0.0949 µM, first compound 0.316 µM) 26.7%; (second compound 0.0949 µM, first compound 1 µM) 21%; (second compound 0.0949 µM, first compound 3.16 µM) 17.9%; (second compound 0.0949 µM, first compound 10 µM) 12.5%. In addition, the viability, T/C was 25.5% (second compound 0.3 µM, first compound 0.0316 µM); 22.5% (second compound 0.3 µM, first compound 0.1 µM); 22.1% (second compound 0.3 µM, first compound 0.316 µM); 18.8% (second compound 0.3 µM, first compound 1 µM); 19.7% (second compound 0.3 µM, first compound 3.16 µM); 12% (second compound 0.3 µM, first compound 10 µM).
As for `NC1c2ccccc2OC12CCN(c1cnc3c(N4CCCc5ncccc54)n[nH]c3n1)CC2` (stereo not given), the viability, T/C runs as follows: (compound 0.0316 µM) 82.2% [middle of 4 runs]; (compound 0.316 µM) 72.5% [middle of 4 runs]; (compound 1 µM) 66% [middle of 4 runs]. For the same molecule, the IC50 (curve of compound) is greater than 10000 nM.
For `Nc1ccn(C2OC(CO)C(O)C2(F)F)c(=O)n1` (stereo not given), the viability, T/C is 108% [middle of 4 runs] (compound 0.00316 µM), 70.9% [middle of 4 runs] (compound 0.0316 µM), 62.3% [middle of 4 runs] (compound 0.1 µM) and 38.8% [middle of 4 runs] (compound 1 µM).
In the case of `C[C@@H](NC(=O)c1ncnc(N)c1Cl)c1ncc(C(=O)Nc2cc(C(F)(F)F)c(Cl)cn2)s1`, the viability, T/C was 116% [middle of 4 runs] (compound 0.0316 µM); 101% [middle of 4 runs] (compound 0.316 µM); 100% (2×) and 109% and 117% (compound 1 µM); 106% [middle of 4 runs] (compound 3.16 µM). Besides, under “curve of compound”, the IC50 was greater than 10000 nM.
